The test system of assay [1] is cortical axons repelled by Sema3A secreted from the ventral spinal cord. The experiment in a line: Co-culture of cortical slices and ventral spinal cord explants (axon guidance response to Sema3A). It is filed as cell-based, mice. The following applies: for Axonal length, Away / Number of axons, Away / Axonal length, Towards / Number of axons, Towards: Ctx/vSC co-culture, L1Fc 3 μg/ml, ODQ 10^−5 M; for Axonal length, Away / Number of axons, Away: growth away from spinal cord explant; for Axonal length, Towards / Number of axons, Towards: growth towards spinal cord explant; for effect of inhibitor on L1Fc-induced switch of Sema3A repulsion to attraction: inhibitor combined with L1Fc 3 μg/ml; for guidance index: qualitative index from −2 (repulsion) to +2 (attraction), L1Fc chimeras 3 μg/ml, ODQ 10^−5M; for conversion of Sema3A-induced chemorepulsion into attraction by peptide: peptide at 10^−6M; for switching of Sema3A repulsion to attraction by L1Fc chimera: chimera 3 μg/ml in culture medium. How it is done: Blocks of cortex were dissected from P0 (postnatal day 0) to P2 mice and cut into 250 μm thick slices with a McIlwain tissue chopper. The ventral part of the cervical spinal cord was dissected and cut into 250 μm thick slices. Co-culture of cortical slices and ventral spinal cord explants were performed in a three-dimensional plasma clot, as described previously (Castellani et al., 2000). Cortical slices were oriented in the plasma clot as indicated in FIG. 1B to give to axons equivalent chances to be deflected away or towards the spinal cord explant. Purified wild-type or mutant L1Fc chimeras were added to the culture medium (3 μg/ml). Inhibitors of the guanylyl cyclase (ODQ, 10^−5 M, Sigma) and NOS (7NI, […], Sigma) were added to the culture medium, either alone or with wild-type L1Fc (3 μg/ml). After one or two days in vitro (DIV), the cultures were fixed with 4% paraformaldehyde (PFA) and analyzed by phase contrast microscopy (Axiovert 35-M, Zeiss). A qualitative guidance index was attributed to the co-cultures, to assess the degree of repulsive (negative values) or attractive (positive values) effects (Castellani et al., 2000). The index ranged from −2 (when most fibers grew away from the spinal cord explant) to +2 (when most fibers grew towards the explant), with intermediate situations (index of −1 and +1 for moderate guidance effects). An index of zero was attributed to the cultures showing no preferential growth. Quantitative analysis of axon length and number of axons growing from cortical slices was performed as described previously (Castellani et al., 2000). A proximal and a distal region, each of them covering a 600 μm-piece of cortical tissue were determined for each culture. All fibers extending from these two regions were counted and the length of the three longest fibers was measured, using computer analysis software (Visiolab 2000, Biocom). Immunofluorescence labeling of axons was performed using the mouse anti-phosphorylated neurofilament antibody SMI31 (Stemberger and Meyer Inc.), and Texas red-conjugated secondary anti-mouse antibody (see result obtained for number of axons and axonal length in the following tables 1 and 2).
It has been previously developed an assay system using explants of ventral spinal cord co-cultured with cortical axons in order to determine the factors involved in axonal repulsion and attraction (Castellani et al., 2000). Using this system we have shown that Sema3A secreted from the ventral spinal cord repels cortical axons. In the presence of soluble wild-type L1Fc chimeric protein however, repulsion is switched to attraction (Castellani et al., […]). In the present study, we aimed to identify the L1 interactions underlying the switching process. As Ig domains have been implicated in binding of Ig CAMs to many of their ligands (Brümmendorf and Rathjen, 1996) we hypothesized that they would also be required for L1 Fc-mediated switching. […] L1 Fc chimeras containing pathological missense mutations affecting specific Ig domains (De Angelis et al., 1999 and FIGS. 1A, 1B) were assessed for their ability to reverse Sema3A repulsion to attraction.

In assay [2] the target is T1, full length human L1 (Homo sapiens, UniProt P32004).
T1 construct: transiently transfected with expression vectors encoding full length human L1; expressed in transfected cells; host or cells: COS7
T1 sequence (P32004 20-1257): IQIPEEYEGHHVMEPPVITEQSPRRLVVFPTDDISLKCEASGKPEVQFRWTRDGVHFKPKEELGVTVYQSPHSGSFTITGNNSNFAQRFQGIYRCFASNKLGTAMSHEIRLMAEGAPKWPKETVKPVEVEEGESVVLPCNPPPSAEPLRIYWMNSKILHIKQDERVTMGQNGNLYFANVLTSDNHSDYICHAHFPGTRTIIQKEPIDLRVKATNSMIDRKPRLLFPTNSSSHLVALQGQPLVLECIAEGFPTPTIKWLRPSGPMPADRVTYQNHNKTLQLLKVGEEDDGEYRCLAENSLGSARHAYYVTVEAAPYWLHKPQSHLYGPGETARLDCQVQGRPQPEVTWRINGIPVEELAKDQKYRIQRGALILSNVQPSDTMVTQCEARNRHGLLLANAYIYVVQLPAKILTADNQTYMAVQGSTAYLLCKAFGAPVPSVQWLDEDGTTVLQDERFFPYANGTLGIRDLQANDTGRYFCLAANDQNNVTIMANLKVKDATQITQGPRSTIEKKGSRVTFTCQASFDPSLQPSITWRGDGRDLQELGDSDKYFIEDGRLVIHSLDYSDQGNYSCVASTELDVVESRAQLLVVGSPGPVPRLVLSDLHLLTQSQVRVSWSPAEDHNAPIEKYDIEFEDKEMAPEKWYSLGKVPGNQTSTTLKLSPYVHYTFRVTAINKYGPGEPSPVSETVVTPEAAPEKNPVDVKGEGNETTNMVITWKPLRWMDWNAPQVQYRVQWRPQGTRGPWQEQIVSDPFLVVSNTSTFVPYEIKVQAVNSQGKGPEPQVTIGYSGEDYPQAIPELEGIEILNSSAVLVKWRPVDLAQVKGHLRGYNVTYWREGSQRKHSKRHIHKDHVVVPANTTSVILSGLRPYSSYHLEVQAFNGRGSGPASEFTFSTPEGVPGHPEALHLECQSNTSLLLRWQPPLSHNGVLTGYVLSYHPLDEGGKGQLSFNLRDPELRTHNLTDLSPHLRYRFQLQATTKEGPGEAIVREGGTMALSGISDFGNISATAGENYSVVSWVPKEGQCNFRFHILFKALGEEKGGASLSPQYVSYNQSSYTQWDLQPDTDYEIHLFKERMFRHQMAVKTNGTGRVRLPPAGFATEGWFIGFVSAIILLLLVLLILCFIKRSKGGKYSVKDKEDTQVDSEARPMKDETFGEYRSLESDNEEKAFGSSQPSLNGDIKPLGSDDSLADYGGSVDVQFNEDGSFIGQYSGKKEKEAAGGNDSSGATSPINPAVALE
The experiment in a line: Binding of L1Fc chimeras to COS cells expressing wild-type L1 (immunofluorescence). The protocol: (§1) The mutant L1Fc chimeras were produced and purified as described previously (De Angelis et al., 1999). Briefly, COS-7 cells were transiently transfected with 10 μg DNA per 150 mm culture dish, the soluble Fc chimeric protein was allowed to accumulate in the media for 6 days and was recovered and purified by protein A-Sepharose affinity chromatography. In the binding experiments, L1Fcs were cross-linked to anti-human Fc antibodies (50 μg/ml, Jackson Immunoresearch) for 1 hr at 37° C. Binding detection to NP-1 requested concentrations of L1Fcs 10 folds higher than L1. Antibody conjugated L1-Fc protein was then incubated with monolayers of COS7 cells transiently transfected with expression vectors encoding full length human L1 or myc-tagged NP-1 where the cytoplasmic domain is deleted (gift of J. Raper, 2000 and Renzi et al., 1999). Following incubation, the cells were fixed with 4% PFA, and processed for double-immunofluorescence detection. NP-1 was detected using a mouse anti-c myc antibody (clone 9E10, Sigma) and L1 using a rat monoclonal anti-L1 antibody. Secondary antibody anti-c-myc (Texas-red conjugated anti-mouse antibodies) was used to detect NP-1, anti-L1 (Texas red conjugated anti-rat antibodies) to detect L1, and anti-Fc (FITC conjugated anti-rabbit antibodies) to detect bound L1Fc chimeras. After secondary antibody incubation, the cells were washed with PBS and mounted in Mowiol (Calbiochem).
Thus, Ig CAMs F3 and TAG-1 (the rodent homologue of axonin-1) ate unlikely to be axonal receptors for L1Fc in the reversion process. […] In the present study however, mutated L1Fc proteins were required to interact with wild-type L1 expressed on growth cones. To formally exclude a role for homophilic binding of L1 in the initiation of the reversion process, it was therefore necessary to examine whether homophilic binding of the mutated L1Fc chimeras to wild-type L1 was also disrupted. Mutated L1Fcs were therefore incubated with COS7 cells transfected with full-length wild-type L1 cDNA and binding was assessed by immunofluorescence. In parallel, homophilic binding of mutant/mutant and mutant/wild-type L1Fcs was compared in a two-color FACS aggregation assay, allowing a quantitative assessment to be made (see Methods). […] Similarly, in the two color FACS assay homophilic binding was restored to 74.4% and 90.5% of wild-type levels for A426D and H210Q respectively (FIG. 2B). […] This mutation however still promoted the L1 Fc induced switching of Sema3A repulsion to attraction in the co-culture assay. Thus, the ability of L1Fc to switch Sema3A repulsion is not dependent on homophilic binding. Consequently, the trans interaction of L1Fc with L1 in the receptor complex is not required for the change in growth cone responsiveness to Sema3A.

The subject of assay [3] is NP-1. The experiment in a line: Binding of L1Fc chimeras to NP-1 expressing COS7 cells (immunofluorescence). The protocol: as §1
Next, we examined the ability of the mutant L1 Fc chimeras to bind NP-1. COS7 cells were transfected with a vector encoding the extracellular and transmembrane domains of NP-1 fused to a myc tag (ANP-1, Renzi et al., J. Neurosci., 15:7870-7880, 1999), and incubated with the mutant L1Fc chimeras. Binding was detected by immunofluorescence. […] Binding of L120V, G121S and A426D L1Fcs to NP-1 is illustrated in FIG. 3.

For assay [4], the system named is L1. As to conditions: mutant bound to itself; cited from earlier work.
Assay [5] concerns F3, axonin-1 and TAX-1. As to conditions: F3, axonin-1 (and TAX-1 where stated); cited from earlier work.

Results on seven molecules are retold here after patent US20060058504A1, “Peptides capable of inducing attraction to the axonal growth and their use for treating neurodegenerative diseases” (Centre National de la Recherche Scientific (CNRS), priority 2002, published 2006).

Changes are numbered by the printed parent chain. Names may count otherwise. “Also recorded” adds a separate entry of the source.

In the case of `O=[N+]([O-])c1cccc2cn[nH]c12` [7NI, 7 nitroindazole, reference compound], in assay [1], the “Axonal length, Away” value is on record as 407.6 +/− 5; the “Number of axons, Away” value is 25.6 +/− 1.6; the “Axonal length, Towards” value was 203.1 +/− 6, *; the “Number of axons, Towards” value is 5 +/− 0.6, *. Also, in assay [1], the “effect of inhibitor on L1Fc-induced switch of Sema3A repulsion to attraction” value was “did block L1Fc-mediated chemoattraction; also recorded: prevented the L1 Fc induced switching of Sema3A from repulsion to attraction” and the guidance index is recorded as −1.6.
Regarding `O=c1onc2cnc3ccccc3n12` [ODQ, 1H-(1,2,4)oxadiazolo(4,3-a)quinoxalin-1-one, reference compound], in assay [1], the “Axonal length, Away” value was 384.1 +/− 7; the “Number of axons, Away” value is 25.2 +/− 1.8; the “Axonal length, Towards” value is 206.9 +/− 8, *; the “Number of axons, Towards” value is listed as 5.1 +/− 0.5, *^. Besides, in assay [1], the “effect of inhibitor on L1Fc-induced switch of Sema3A repulsion to attraction” value is on record as “reversion was prevented; also recorded: prevented the L1 Fc induced switching of Sema3A from repulsion to attraction” and the guidance index was −1.6.
On to “ASNKL (Description of the Artificial sequence Derived from the human amino-acid sequence of L1 Ig1 domain) [ASNKL120, five amino-acid peptide from L1 Ig1 domain]”, for which the “conversion of Sema3A-induced chemorepulsion into attraction by peptide” value in assay [1] is on record as “successfully converted Sema3A-induced chemorepulsion into attraction”.
Take “FASNKLGTAM (Description of the Artificial sequence Derived from the human amino-acid sequence of L1 Ig1 domain) [ten amino-acid peptide from L1 Ig1 domain]”: the “conversion of Sema3A-induced chemorepulsion into attraction by peptide” value in assay [1] is listed as “successfully converted Sema3A-induced chemorepulsion into attraction”.

B1: H210Q: L1Fc chimera with missense mutation H210Q in Ig domain 2 (protein)
chain: IQIPEEYEGHHVMEPPVITEQSPRRLVVFPTDDISLKCEASGKPEVQFRWTRDGVHFKPKEELGVTVYQSPHSGSFTITGNNSNFAQRFQGIYRCFASNKLGTAMSHEIRLMAEGAPKWPKETVKPVEVEEGESVVLPCNPPPSAEPLRIYWMNSKILHIKQDERVTMGQNGNLYFANVLTSDNHSDYICQAHFPGTRTIIQKEPIDLRVKATNSMIDRKPRLLFPTNSSSHLVALQGQPLVLECIAEGFPTPTIKWLRPSGPMPADRVTYQNHNKTLQLLKVGEEDDGEYRCLAENSLGSARHAYYVTVEAAPYWLHKPQSHLYGPGETARLDCQVQGRPQPEVTWRINGIPVEELAKDQKYRIQRGALILSNVQPSDTMVTQCEARNRHGLLLANAYIYVVQLPAKILTADNQTYMAVQGSTAYLLCKAFGAPVPSVQWLDEDGTTVLQDERFFPYANGTLGIRDLQANDTGRYFCLAANDQNNVTIMANLKVKDATQITQGPRSTIEKKGSRVTFTCQASFDPSLQPSITWRGDGRDLQELGDSDKYFIEDGRLVIHSLDYSDQGNYSCVASTELDVVESRAQLLVVGSPGPVPRLVLSDLHLLTQSQVRVSWSPAEDHNAPIEKYDIEFEDKEMAPEKWYSLGKVPGNQTSTTLKLSPYVHYTFRVTAINKYGPGEPSPVSETVVTPEAAPEKNPVDVKGEGNETTNMVITWKPLRWMDWNAPQVQYRVQWRPQGTRGPWQEQIVSDPFLVVSNTSTFVPYEIKVQAVNSQGKGPEPQVTIGYSGEDYPQAIPELEGIEILNSSAVLVKWRPVDLAQVKGHLRGYNVTYWREGSQRKHSKRHIHKDHVVVPANTTSVILSGLRPYSSYHLEVQAFNGRGSGPASEFTFSTPEGVPGHPEALHLECQSNTSLLLRWQPPLSHNGVLTGYVLSYHPLDEGGKGQLSFNLRDPELRTHNLTDLSPHLRYRFQLQATTKEGPGEAIVREGGTMALSGISDFGNISATAGENYSVVSWVPKEGQCNFRFHILFKALGEEKGGASLSPQYVSYNQSSYTQWDLQPDTDYEIHLFKERMFRHQMAVKTNGTGRVRLPPAGFATE
modifications: left off: a dimerising Fc or GST
Take B1: in assay [1], the “switching of Sema3A repulsion to attraction by L1Fc chimera” value (from here on “switching of Sema3A repulsion”) is “able to reverse Sema3A repulsion to attraction; also recorded: efficiently induce switching of Sema3A repulsion to attraction”. Moreover, in assay [2], the “binding to wild-type L1 expressed in COS cells” value is “bound to wild-type L1”. Further, the “binding to NP-1 expressing cells” value in assay [3] was “bound NP-1 expressing cells”. Moreover, the “effect of mutation on homophilic binding” value in assay [4] is “affect homophilic”.

B2: E309K: L1Fc chimera with missense mutation E309K in Ig domain 3 (protein)
chain: B1 chain with Q191H, E290K
modifications: left off: a dimerising Fc or GST
Turning to B2, in assay [1], the “switching of Sema3A repulsion” value is “able to reverse Sema3A repulsion to attraction; also recorded: efficiently induce switching of Sema3A repulsion to attraction; also recorded: switched Sema3A from repulsion to attraction to the same extent as wild type L1Fc”. For the same molecule, the “binding to NP-1 expressing cells” value in assay [3] was “bound NP-1 expressing cells”. Besides, the “effect of mutation on heterophilic binding” value in assay [5] is “affect”.

B3: A426D: L1Fc chimera with missense mutation A426D in Ig domain 5 (protein)
chain: B1 chain with Q191H, A407D
modifications: left off: a dimerising Fc or GST
For the molecule B3, the “switching of Sema3A repulsion” value in assay [1] is on record as “able to reverse Sema3A repulsion to attraction; also recorded: efficiently induce switching of Sema3A repulsion to attraction; also recorded: switched Sema3A from repulsion to attraction to the same extent as wild type L1Fc”. Also, the “binding to wild-type L1 expressed in COS cells” value in assay [2] is listed as “bound to wild-type L1”. Moreover, the “binding to NP-1 expressing cells” value in assay [3] is “bound to NP-1 expressing cells”. In addition, the “effect of mutation on homophilic binding” value in assay [4] is listed as “reduce homophilic binding”. Besides, the “effect of mutation on heterophilic binding” value in assay [5] was “reduce”.
